Where a name gives a salt, the structure may show the parent alone. Read-outs that look alike come from different tables or passages of the source.
Columns and labels:
[1] = system: P. aeruginosa expressing IMP-1, efflux+ (MB9798); type: cell-based, Pseudomonas aeruginosa; conditions: for P. aeruginosa expressing IMP-1, efflux+ (MB9798) MITC95: imipenem at 2 μg/mL, in the presence of a class A, C, D serine β-lactamase inhibitor closely related to relebactam; for Efflux ratio: ratio MITC95 PA_9798/MITC95 PA_9799
Text: (§1) The strain background is Pseudomonas aeruginosa PAO1.

VIM-1 = VIM-1 (Pseudomonas aeruginosa (strain ATCC 15692 / DSM 22644 / CIP 104116 / JCM 14847 / LMG 12228 / 1C / PRS 101 / PAO1), UniProt A0A0F7KYQ8); assay: biochemical; conditions: CCF2-FA substrate, 2 hours at 25° C
How it was run: (§2)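 Two-hour, 25° C incubation of enzyme with inhibitor and CCF2-FA (7-hydroxycoumarin–cephalosporin–fluorescein). Fluorescence read-out; IC50 via 4-parameter fit.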

NDM-1 = NDM-1 (Klebsiella pneumoniae, UniProt C7C422); assay: biochemical; type: biochemical; conditions: CCF2-FA substrate, 2 hours at 25° C; read-out: NDM-1 IC50
How it was run: as §2

IMP-1 = IMP-1 (Serratia marcescens, UniProt P52699); assay: biochemical; type: biochemical
How it was run: as §2

[2] = system: P. aeruginosa expressing IMP-1, efflux− (MB9799); assay: Efflux: concentration of MBL inhibitor which restores susceptibility to imipenem; type: cell-based, Pseudomonas aeruginosa; conditions: imipenem at 2 μg/mL, in the presence of a class A, C, D serine β-lactamase inhibitor closely related to relebactam
Text: as §1

[3] = system: Klebsiella pneumoniae expressing VIM-1 (IHMA599644); type: cell-based; conditions: with imipenem 1 μg/ml; 95% inhibition of bacterial growth
How it was run: (§3)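 Colonies from overnight 35 °C blood-agar cultures were suspended in saline, diluted 1:100 into 1.1× CAMHB and exposed to test compound with or without imipenem at 1 μg/ml. After 22–24 h at 35 °C, absorbance was read to find the concentration restoring imipenem susceptibility.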

[4] = system: Escherichia coli expressing NDM-1 (CLB30005, CLB30016); type: cell-based; conditions: with imipenem 1 μg/ml; 95% inhibition of bacterial growth
How it was run: as §3

[5] = system: Serratia marcescens expressing IMP-1 (CL5741); type: cell-based; conditions: with imipenem 1 μg/ml; 95% inhibition of bacterial growth
How it was run: as §3

[6] = CCF2-FA substrate, 2 hours at 25° C, read-out: IMP-1 IC50

Sequence of NDM-1 (C7C422 whole entry, looked up, species assumed): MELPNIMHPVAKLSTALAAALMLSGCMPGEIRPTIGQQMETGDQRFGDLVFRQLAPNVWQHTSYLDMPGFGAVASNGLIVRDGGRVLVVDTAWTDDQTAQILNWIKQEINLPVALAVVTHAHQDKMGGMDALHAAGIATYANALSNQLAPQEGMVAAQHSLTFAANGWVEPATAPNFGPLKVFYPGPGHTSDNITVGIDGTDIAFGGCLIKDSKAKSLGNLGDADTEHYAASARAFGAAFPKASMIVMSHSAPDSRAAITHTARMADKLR
Sequence of IMP-1 (P52699 whole entry, looked up, species assumed): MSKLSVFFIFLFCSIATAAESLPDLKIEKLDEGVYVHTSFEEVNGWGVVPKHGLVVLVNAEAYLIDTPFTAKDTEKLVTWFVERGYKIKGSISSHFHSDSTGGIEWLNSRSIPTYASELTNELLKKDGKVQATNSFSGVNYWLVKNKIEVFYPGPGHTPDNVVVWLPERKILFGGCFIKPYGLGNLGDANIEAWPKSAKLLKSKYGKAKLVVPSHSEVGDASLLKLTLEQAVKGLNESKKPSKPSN

Row | SMILES | P. aeruginosa expressing IMP-1, efflux+ (MB9798) MITC95 [1] [µM] | Efflux ratio [1] | IC50 (VIM-1) [nM] | IC50 (NDM-1) [nM] | IC50 (IMP-1; [6]) [nM] | P. aeruginosa expressing IMP-1, efflux− (MB9799) MITC95 [2] [µM] | Klebsiella pneumoniae expressing VIM-1 (IHMA599644) MITC95 [3] [µM] | Escherichia coli expressing NDM-1 (CLB30016) MITC95 [4] [µM] | Serratia marcescens expressing IMP-1 (CL5741) MITC95 [5] [µM] | IC50 (IMP-1) [nM]
1 | NCCS(=O)(=O)c1ccc(-c2cccc3ccc(N)nc23)c(-c2nn[nH]n2)c1S(N)(=O)=O [Example 71, 6-(2-aminoethylsulfonyl)-3-(2-aminoquinolin-8-yl)-2-(2H-tetrazol-5-yl)benzenesulfonamide] | 0.7813 | 1.00 | 0.315 | 0.115 | 0.129 | 0.7813 | 1.563 | 0.3906 | 0.7813 | –
2 | NCCS(=O)(=O)c1ccc(-c2ccc(C(F)(F)F)c3sc(N)nc23)c(-c2nn[nH]n2)c1S(N)(=O)=O [Example 72, 3-(2-amino-7-(trifluoromethyl)benzo[d]thiazol-4-yl)-6-(2-aminoethylsulfonyl)-2-(2H-tetrazol-5-yl)benzenesulfonamide] | 3.125 | 4.00 | 0.286 | 0.153 | 0.322 | 0.7813 | 1.563 | 0.7813 | 1.563 | –
3 | NCCS(=O)(=O)c1ccc(-c2cccc3cc(N)ncc23)c(-c2nn[nH]n2)c1S(N)(=O)=O [Example 73, 6-(2-aminoethylsulfonyl)-3-(3-aminoisoquinolin-8-yl)-2-(2H-tetrazol-5-yl)benzenesulfonamide] | 1.563 | 1.00 | 0.241 | 0.109 | 0.214 | 1.563 | 3.125 | 0.7813 | 3.125 | –
4 | NCCS(=O)(=O)c1ccc(-c2cccc3nc(N)oc23)c(-c2nn[nH]n2)c1S(N)(=O)=O [Example 74, 3-(2-aminobenzo[d]oxazol-7-yl)-6-(2-aminoethylsulfonyl)-2-(2H-tetrazol-5-yl)benzenesulfonamide] | 3.125 | 4.00 | 0.172 | 0.096 | – | 0.7813 | 3.125 | 0.7813 | 1.563 | 0.989
5 | NCCS(=O)(=O)c1ccc(-c2ccc3nc(N)oc3c2)c(-c2nn[nH]n2)c1S(N)(=O)=O [Example 75, 3-(2-aminobenzo[d]oxazol-6-yl)-6-(2-aminoethylsulfonyl)-2-(2H-tetrazol-5-yl)benzenesulfonamide] | 6.25 | 8.00 | 0.283 | 0.5 | 0.433 | 0.7813 | 1.563 | 1.563 | 1.563 | –
6 | NCCS(=O)(=O)c1ccc(-c2cccc3oc(N)nc23)c(-c2nn[nH]n2)c1S(N)(=O)=O [Example 76, 3-(2-aminobenzo[d]oxazol-4-yl)-6-(2-aminoethylsulfonyl)-2-(2H-tetrazol-5-yl)benzenesulfonamide] | 0.7813 | 1.00 | 0.24 | 0.148 | – | 0.7813 | 1.563 | 0.7813 | 0.7813 | 0.258
7 | NCCS(=O)(=O)c1ccc(-c2ccc3oc(N)nc3c2)c(-c2nn[nH]n2)c1S(N)(=O)=O [Example 77, 3-(2-aminobenzo[d]oxazol-5-yl)-6-(2-aminoethylsulfonyl)-2-(2H-tetrazol-5-yl)benzenesulfonamide] | 6.25 | 8.00 | 0.385 | 1.05 | 1.13 | 0.7813 | 1.563 | 0.7813 | 1.563 | –
8 | NCCS(=O)(=O)c1ccc(-c2cccc3nc(N)sc23)c(-c2nn[nH]n2)c1S(N)(=O)=O [Example 78, 3-(2-aminobenzo[d]thiazol-7-yl)-6-(2-aminoethylsulfonyl)-2-(2H-tetrazol-5-yl)benzenesulfonamide] | 1.172 | 1.50 | 0.136 | 0.0576 | 0.441 | 0.7813 | 2.344 | 0.7813 | 1.172 | –
9 | Cn1c(N)nc2c(-c3ccc(S(=O)(=O)CCN)c(S(N)(=O)=O)c3-c3nn[nH]n3)cccc21 [Example 79, 3-(2-amino-1-methyl-1H-benzo[d]imidazol-4-yl)-6-(2-aminoethylsulfonyl)-2-(2H-tetrazol-5-yl)benzenesulfonamide] | 0.8906 | 1.39 | 0.327 | 0.354 | – | 0.6406 | 1.281 | 0.25 | 0.8906 | 0.241
10 | Cc1ccc(-c2ccc(S(=O)(=O)CCN)c(S(N)(=O)=O)c2-c2nn[nH]n2)c2nc(N)sc12 [Example 80, 3-(2-amino-7-methylbenzo[d]thiazol-4-yl)-6-(2-aminoethylsulfonyl)-2-(2H-tetrazol-5-yl)benzenesulfonamide] | 0.7813 | 1.00 | 0.11 | 0.0508 | 0.085 | 0.7813 | 1.563 | 1.172 | 0.7813 | –
11 | NCCS(=O)(=O)c1ccc(-c2cncc3sc(N)nc23)c(-c2nn[nH]n2)c1S(N)(=O)=O [Example 81, 6-((2-aminoethyl)sulfonyl)-3-(2-aminothiazolo[5,4-c]pyridin-7-yl)-2-(2H-tetrazol-5-yl)benzenesulfonamide hydrochloride] | 0.7813 | 1.00 | 0.356 | 0.29 | – | 0.7813 | 3.125 | 0.7813 | 1.563 | 0.266
12 | CC(=O)Nc1nc2c(-c3ccc(S(=O)(=O)CCN)c(S(N)(=O)=O)c3-c3nn[nH]n3)cccc2s1 [Example 82, N-(4-(4-(2-aminoethylsulfonyl)-3-sulfamoyl-2-(2H-tetrazol-5-yl)phenyl)benzo[d]thiazol-2-yl)acetamide] | 3.125 | 2.00 | 0.131 | 0.0871 | 0.194 | 1.563 | 3.125 | 1.563 | 1.563 | –
13 | CS(=O)(=O)Nc1nc2c(-c3ccc(S(=O)(=O)CCN)c(S(N)(=O)=O)c3-c3nn[nH]n3)cccc2s1 [Example 83, 6-(2-aminoethylsulfonyl)-3-(2-(methylsulfonamido)benzo[d]thiazol-4-yl)-2-(2H-tetrazol-5-yl)benzenesulfonamide] | 12.5 | 2.00 | 0.263 | 0.117 | 0.341 | 6.25 | 12.5 | 6.25 | 6.25 | –

Reference: patent publication US10227331B2 (priority 2015, dated 2019)
